Experimental data from patent publication US20160139154A1, “METHODS FOR DETERMINING TOTAL BODY SKELETAL MUSCLE MASS” (THE REGENTS OF THE UNIVERSITY OF CALIFORNIA, priority 2013, published 2016).

What was measured:
[1] = Pharmacokinetics of D3-creatine in plasma after a single oral tracer dose; format: in vivo, human; settings: healthy subjects
Method: Subjects were housed on the in-patient unit for the full 5 day study. Subjects were admitted on Day-1, for baseline evaluation and acclimation.
(§1) In the older subjects, sampling was extended to 72 hr (24, 36, 48, and 72 hr). Urine was collected continuously beginning at baseline, day −1, through day 5 of the study in timed intervals. On Day −1, subjects entered the clinic prior to noon, and timed urine collections began at 12:00 PM with 12:00 PM being time 0 (0-4, 4-8, 8-12, 12-20 h), and completed at 8:00 AM the next day, Day 1.
(§2) Total body creatine pool size and muscle mass were calculated from D3-creatinine enrichment in urine. Total body muscle mass was measured by MRI (serial cross sections), and total lean body mass (LBM) and appendicular lean mass (ALM) were measured by DXA during the subjects' stay on the inpatient unit.

[2] = Urinary excretion and renal clearance of the D3-creatine tracer dose; format: in vivo, human
Method: as §1, §2
The data were analyzed in SAS v9.2 (SAS Institute, Cary, N.C.) and graphs were produced in either SAS or TSCG. […] There were no adjustments for multiplicity.

[3] = in vivo, po
Method: Enrichment of D3-creatinine in urine to total creatinine in urine was determined for each urine collection interval. Achievement of steady-state enrichment was determined by a combination of visual inspection and linear regression. […] Linear regression of the enrichment ratio on time (midpoint of the urine collection interval) was performed for each subject separately. […] The earliest time point included in the final regression was defined as the time to achievement of steady-state.

cleared from plasma ([1]; single oral tracer dose 30-100 mg, within 24 h)	cleared from plasma by 72 h ([1]; single oral tracer dose, by 72 h)	% of D3-creatine recovered in urine over 120 h ([2]; range across subjects, single oral dose 30-100 mg)	renal clearance ([2]; human, in vivo)	renal clearance as % of the dose ([2]; human, in vivo)	time to achievement of steady-state enrichment in urine [3]	Compound
~80%	essentially cleared	0.1 to 34%	–	–	–	[2H]C([2H])([2H])N(CC(=O)O)C(=N)N [D3-creatine]
–	–	–	0.26 to 56 mL/min	0.1% to 34	30.7 h	D3-creatinine
